Experimental data reported in patent US20250026778A1 (TIUMBIO CO., LTD., priority 2021, published 2025).

These compounds were tested against T1, his-galectin-3 (Homo sapiens, UniProt P17931) (assay: TR-FRET assay (in vitro galectin-3 binding inhibitory activity test)). Conditions: Table 1; compound at 20 μM; 60 nM his-galectin-3, 15 nM biotin-ASF; read-out: % Inhibitory activity (at 20 μM).
T1 construct: purchased Abcam
Protocol: TR-FRET Assay (In Vitro Galectin-3 Binding Inhibitory Activity Test)
TR-FRET assay was performed in ½ Area Plate-96 (PerkinElmer). Final concentrations of components in the assay were 60 nM his-galectin-3 (Abcam), 15 nM biotin-ASF (Axxora), 2 nM Mab anti-6×His Tb (Cisbio) and 20 nM SA-d2 (Cisbio). The reaction was performed in a buffer containing 25 mM HEPES, 100 mM NaCl, 0.005% Tween 20 and 0.05% BSA. 20 μL his-galectin-3 and 1 μL compound were mixed first, and then 20 μL biotin-ASF, 5 μL anti-His Tb and 5 μL SA-d2 were added in order. After incubation for at least 3.5 hours at RT, TR-FRET signals were measured at 615/665 nm […] wavelengths using a VICTOR Nivo (PerkinElmer). The positive control used DMSO instead of the compound, and the negative control excluded ASF-biotin. N-acetyl-D-lactosamine (LacNAc), an endogenous ligand unit of galectin-3, was evaluated together as a control substance to compare galectin-3 binding inhibitory activity.

T1 sequence (P17931 whole entry): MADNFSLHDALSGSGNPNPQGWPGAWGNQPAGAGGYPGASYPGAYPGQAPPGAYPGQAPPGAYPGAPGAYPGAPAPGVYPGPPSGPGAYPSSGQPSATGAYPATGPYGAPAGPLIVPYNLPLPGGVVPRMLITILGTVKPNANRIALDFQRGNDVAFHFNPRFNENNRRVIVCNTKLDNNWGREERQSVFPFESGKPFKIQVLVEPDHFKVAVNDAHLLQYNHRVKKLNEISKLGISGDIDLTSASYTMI

inhibition at 20 µM | Structure (SMILES)
25 to 50% | OC[C@H]1O[C@@]2(CCCCO2)[C@H](OCc2ccccc2O)[C@@H](n2cc(-c3cc(F)c(F)c(F)c3)nn2)[C@H]1O [Compound A47, (2R,3R,4S,5R,6S)-5-((2-hydroxybenzyl)oxy)-2-(hydroxymethyl)-4-(4-(3,4,5-trifluorophenyl)-1H-1,2,3-triazol-1-yl)-1,7-dioxaspiro[5.5]undecan-3-ol]
25 to 50% | OC[C@H]1O[C@@]2(CCCCO2)[C@H](OCc2cccc(F)c2)[C@@H](n2cc(-c3cc(F)c(F)c(F)c3)nn2)[C@H]1O [Compound A48, (2R,3R,4S,5R,6S)-5-((3-fluorobenzyl)oxy)-2-(hydroxymethyl)-4-(4-(3,4,5-trifluorophenyl)-1H-1,2,3-triazol-1-yl)-1,7-dioxaspiro[5.5]undecan-3-ol]
25 to 50% | OC[C@H]1O[C@@]2(CCCCO2)[C@H](OCc2cccc(C(F)(F)F)c2)[C@@H](n2cc(-c3cc(F)c(F)c(F)c3)nn2)[C@H]1O [Compound A49, (2R,3R,4S,5R,6S)-2-(hydroxymethyl)-5-((3-(trifluoromethyl)benzyl)oxy)-4-(4-(3,4,5-trifluorophenyl)-1H-1,2,3-triazol-1-yl)-1,7-dioxaspiro[5.5]undecan-3-ol]
25 to 50% | OC[C@H]1O[C@@]2(CCCCO2)[C@H](OCc2ccccn2)[C@@H](n2cc(-c3cc(F)c(F)c(F)c3)nn2)[C@H]1O [Compound A50, (2R,3R,4S,5R,6S)-2-(hydroxymethyl)-5-(pyridin-2-ylmethoxy)-4-(4-(3,4,5-trifluorophenyl)-1H-1,2,3-triazol-1-yl)-1,7-dioxaspiro[5.5]undecan-3-ol]
25 to 50% | O=C(O[C@@H]1[C@@H](n2cc(-c3cc(F)c(F)c(F)c3)nn2)[C@@H](O)[C@@H](CO)O[C@@]12CCCCO2)c1cccc(F)c1 [Compound A51, (2R,3R,4S,5R,6S)-3-hydroxy-2-(hydroxymethyl)-4-(4-(3,4,5-trifluorophenyl)-1H-1,2,3-triazol-1-yl)-1,7-dioxaspiro[5.5]undecan-5-yl 3-fluorobenzoate]
< 25% | O=C(O[C@@H]1[C@@H](n2cc(-c3cc(F)c(F)c(F)c3)nn2)[C@@H](O)[C@@H](CO)O[C@@]12CCCCO2)c1cccc(C(F)(F)F)c1 [Compound A52, (2R,3R,4S,5R,6S)-3-hydroxy-2-(hydroxymethyl)-4-(4-(3,4,5-trifluorophenyl)-1H-1,2,3-triazol-1-yl)-1,7-dioxaspiro[5.5]undecan-5-yl 3-(trifluoromethyl)benzoate]
25 to 50% | COc1cccc(C(=O)O[C@@H]2[C@@H](n3cc(-c4cc(F)c(F)c(F)c4)nn3)[C@@H](O)[C@@H](CO)O[C@@]23CCCCO3)c1 [Compound A53, (2R,3R,4S,5R,6S)-3-hydroxy-2-(hydroxymethyl)-4-(4-(3,4,5-trifluorophenyl)-1H-1,2,3-triazol-1-yl)-1,7-dioxaspiro[5.5]undecan-5-yl 3-methoxybenzoate]
< 25% | N[C@@H]1CCO[C@]12O[C@H](CO)[C@H](O)[C@H](n1cc(-c3cc(F)c(F)c(F)c3)nn1)[C@H]2O [Compound A56, (4R,5S,7R,8R,9S,10R)-4-amino-7-(hydroxymethyl)-9-(4-(3,4,5-trifluorophenyl)-1H-1,2,3-triazol-1-yl)-1,6-dioxaspiro[4.5]decane-8,10-diol]
25 to 50% | OC[C@H]1O[C@@]2(CCCCO2)[C@H](OCc2cccnc2)[C@@H](n2cc(-c3cc(F)c(F)c(F)c3)nn2)[C@H]1O [Compound A58, (2R,3R,4S,5R,6S)-2-(hydroxymethyl)-5-(pyridin-3-ylmethoxy)-4-(4-(3,4,5-trifluorophenyl)-1H-1,2,3-triazol-1-yl)-1,7-dioxaspiro[5.5]undecan-3-ol]
< 25% | O=C(N[C@@H]1CCO[C@]12O[C@H](CO)[C@H](O)[C@H](n1cc(-c3cc(F)c(F)c(F)c3)nn1)[C@H]2O)c1cccc(F)c1 [Compound A60, N-((4R,5S,7R,8R,9S,10R)-8,10-dihydroxy-7-(hydroxymethyl)-9-(4-(3,4,5-trifluorophenyl)-1H-1,2,3-triazol-1-yl)-1,6-dioxaspiro[4.5]decan-4-yl)-3-fluorobenzamide]
50 to 75% | OC[C@H]1O[C@]2(OCC[C@H]2NCc2cccc(F)c2)[C@H](O)[C@@H](n2cc(-c3cc(F)c(F)c(F)c3)nn2)[C@H]1O [Compound A62, (4R,5S,7R,8R,9S,10R)-4-((3-fluorobenzyl)amino)-7-(hydroxymethyl)-9-(4-(3,4,5-trifluorophenyl)-1H-1,2,3-triazol-1-yl)-1,6-dioxaspiro[4.5]decane-8,10-diol]
< 25% | OC[C@H]1O[C@]2(OCC[C@H]2NCc2c(O)ccc(F)c2F)[C@H](O)[C@@H](n2cc(-c3cc(F)c(F)c(F)c3)nn2)[C@H]1O [Compound A63, (4R,5S,7R,8R,9S,10R)-4-((2,3-difluoro-6-hydroxybenzyl)amino)-7-(hydroxymethyl)-9-(4-(3,4,5-trifluorophenyl)-1H-1,2,3-triazol-1-yl)-1,6-dioxaspiro[4.5]decane-8,10-diol]
< 25% | O=C(O[C@@H]1[C@@H](n2cc(-c3cc(F)c(F)c(F)c3)nn2)[C@@H](O)[C@@H](CO)O[C@@]12CCCO2)c1ccccc1Cl [Compound A70, (5S,7R,8R,9S,10R)-8-hydroxy-7-(hydroxymethyl)-9-(4-(3,4,5-trifluorophenyl)-1H-1,2,3-triazol-1-yl)-1,6-dioxaspiro[4.5]decan-10-yl 2-chlorobenzoate]

Same assay, conditions: Table 3, found values; compound at 20 μM; 60 nM his-galectin-3, 15 nM biotin-ASF; read-out: % Inhibitory activity (at 20 μM)

inhibition at 20 µM | Structure (SMILES)
43.7% | OC[C@H]1O[C@@]2(CCCCO2)[C@H](OCc2cccc(F)c2)[C@@H](n2cc(-c3cc(F)c(F)c(F)c3)nn2)[C@H]1O [Compound A48, (2R,3R,4S,5R,6S)-5-((3-fluorobenzyl)oxy)-2-(hydroxymethyl)-4-(4-(3,4,5-trifluorophenyl)-1H-1,2,3-triazol-1-yl)-1,7-dioxaspiro[5.5]undecan-3-ol]

Same assay, conditions: read-out: % Inhibitory activity (at 20 μM), Table 1; compound at 20 μM; 60 nM his-galectin-3, 15 nM biotin-ASF

Structure (SMILES) | inhibition at 20 µM
O=C(O)CO[C@@H]1[C@@H](n2cc(-c3cc(F)c(F)c(F)c3)nn2)[C@@H](O)[C@@H](CO)O[C@@]12CCCCO2 [Compound A54, 2-(((2R,3R,4S,5R,6S)-3-hydroxy-2-(hydroxymethyl)-4-(4-(3,4,5-trifluorophenyl)-1H-1,2,3-triazol-1-yl)-1,7-dioxaspiro[5.5]undecan-5-yl)oxy)acetic acid] | 25 to 50%
CC(O[C@@H]1[C@@H](n2cc(-c3cc(F)c(F)c(F)c3)nn2)[C@@H](O)[C@@H](CO)O[C@@]12CCCCO2)C(=O)O (stereo partly drawn) [Compound A55, 2-(((2R,3R,4S,5R,6S)-3-hydroxy-2-(hydroxymethyl)-4-(4-(3,4,5-trifluorophenyl)-1H-1,2,3-triazol-1-yl)-1,7-dioxaspiro[5.5]undecan-5-yl)oxy)propanoic acid] | 50 to 75%
O=C(O[C@@H]1[C@@H](n2cc(-c3cc(F)c(F)c(F)c3)nn2)[C@@H](O)[C@@H](CO)O[C@@]12CCCCO2)c1ccccn1 [Compound A57] | 50 to 75%
Cc1ccc(S(=O)(=O)O[C@@H]2[C@@H](n3cc(-c4cc(F)c(F)c(F)c4)nn3)[C@@H](O)[C@@H](CO)O[C@@]23CCCO3)cc1 [Compound A59, (5S,7R,8R,9S,10R)-8-hydroxy-7-(hydroxymethyl)-9-(4-(3,4,5-trifluorophenyl)-1H-1,2,3-triazol-1-yl)-1,6-dioxaspiro[4.5]decan-10-yl 4-methylbenzenesulfonate] | 25 to 50%
O=C(O[C@@H]1[C@@H](n2cc(-c3cc(F)c(F)c(F)c3)nn2)[C@@H](O)[C@@H](CO)O[C@@]12CCCCO2)c1cccnc1 [Compound A61, (2R,3R,4S,5R,6S)-3-hydroxy-2-(hydroxymethyl)-4-(4-(3,4,5-trifluorophenyl)-1H-1,2,3-triazol-1-yl)-1,7-dioxaspiro[5.5]undecan-5-yl nicotinate] | 25 to 50%
OC[C@H]1O[C@@]2(CCCO2)[C@H](OCc2cccc(Cl)c2)[C@@H](n2cc(-c3cc(F)c(F)c(F)c3)nn2)[C@H]1O [Compound A64, (5S,7R,8R,9S,10R)-10-((3-chlorobenzyl)oxy)-7-(hydroxymethyl)-9-(4-(3,4,5-trifluorophenyl)-1H-1,2,3-triazol-1-yl)-1,6-dioxaspiro[4.5]decan-8-ol] | < 25%
OC[C@H]1O[C@@]2(CCCO2)[C@H](OCc2cccc(F)c2F)[C@@H](n2cc(-c3cc(F)c(F)c(F)c3)nn2)[C@H]1O [Compound A65, (5S,7R,8R,9S,10R)-10-((2,3-difluorobenzyl)oxy)-7-(hydroxymethyl)-9-(4-(3,4,5-trifluorophenyl)-1H-1,2,3-triazol-1-yl)-1,6-dioxaspiro[4.5]decan-8-ol] | < 25%
CC(O[C@@H]1[C@@H](n2cc(-c3cc(F)c(F)c(F)c3)nn2)[C@@H](O)[C@@H](CO)O[C@@]12CCCO2)C(=O)O (stereo partly drawn) [Compound A66, 2-(((5S,7R,8R,9S,10R)-8-hydroxy-7-(hydroxymethyl)-9-(4-(3,4,5-trifluorophenyl)-1H-1,2,3-triazol-1-yl)-1,6-dioxaspiro[4.5]decan-10-yl)oxy)propanoic acid] | 25 to 50%
O=C(O[C@@H]1[C@@H](n2cc(-c3cc(F)c(F)c(F)c3)nn2)[C@@H](O)[C@@H](CO)O[C@@]12CCCO2)c1ccccc1F [Compound A69, (5S,7R,8R,9S,10R)-8-hydroxy-7-(hydroxymethyl)-9-(4-(3,4,5-trifluorophenyl)-1H-1,2,3-triazol-1-yl)-1,6-dioxaspiro[4.5]decan-10-yl 2-fluorobenzoate] | 25 to 50%

Same assay, conditions: read-out: % Inhibitory activity (at 20 μM), Table 3, found values; compound at 20 μM; 60 nM his-galectin-3, 15 nM biotin-ASF

Structure (SMILES) | inhibition at 20 µM
CC(O[C@@H]1[C@@H](n2cc(-c3cc(F)c(F)c(F)c3)nn2)[C@@H](O)[C@@H](CO)O[C@@]12CCCCO2)C(=O)O (stereo partly drawn) [Compound A55, 2-(((2R,3R,4S,5R,6S)-3-hydroxy-2-(hydroxymethyl)-4-(4-(3,4,5-trifluorophenyl)-1H-1,2,3-triazol-1-yl)-1,7-dioxaspiro[5.5]undecan-5-yl)oxy)propanoic acid] | 60%
OC[C@H]1O[C@@]2(CCCO2)[C@H](OCc2cccc(F)c2F)[C@@H](n2cc(-c3cc(F)c(F)c(F)c3)nn2)[C@H]1O [Compound A65, (5S,7R,8R,9S,10R)-10-((2,3-difluorobenzyl)oxy)-7-(hydroxymethyl)-9-(4-(3,4,5-trifluorophenyl)-1H-1,2,3-triazol-1-yl)-1,6-dioxaspiro[4.5]decan-8-ol] | 17.3%
